Measured values: US11180500B2, “Derivatives of relebactam and uses thereof” (ARIXA PHARMACEUTICALS, INC., priority 2018, dated 2021)

Assay: Oral bioavailability in Beagle dogs (plasma concentration of relebactam)
Format: in vivo
Conditions: male Beagle dogs, IV bolus, mean
Procedure: The oral bioavailability of certain relebactam prodrugs provided by the present disclosure in Beagle dogs was evaluated.
Dosing formulations are prepared on the day of dosing. Intravenous formulations are prepared under aseptic conditions, sterile filtered, and brought to room temperature prior to dosing. The intravenous formulation included relebactam at a final concentration of 2.8 mg/mL in PBS at pH 7.5.
The formulations were administered to male Beagle dogs weighing about 10 kg. The animals were maintained in accordance with the Guide for the Care and Use of Laboratory Animals, National Research Council, The National Academies Press, Washington, DC, 2011.
The dogs received either an IV bolus dose of 9.9 mg/kg, or a peroral dose of 22 mg/kg (Compound 87) or 20.0 mg/kg (Compound 88). […]
The plasma concentration of relebactam was measured at intervals following administration. […] The relebactam concentration was determined using LC/MS/MS.
The area under the concentration vs. time curves (AUC) was calculated using the linear/log trapezoidal method with linear interpolation. The percent oral bioavailability (% F) of relebactam was determined by comparing the AUC following oral administration with the AUC following IV administration on a dose normalized basis.

AUC(0-inf) (dog, nominal dose 10.0 mg/kg (administered 9.88 mg/kg)): 29400 ng·h/mL
AUC0-inf/D (relebactam-equivalent dose 9.88 mg/kg): 2974
SMILES: O=C(NC1CCNCC1)[C@@H]1CC[C@@H]2CN1C(=O)N2OS(=O)(=O)O [relebactam]
